From the SangsterLogP compilation

Test: not given
Settings: not given
In the case of `NC1=NCC(COc2ccccc2Cc2ccccc2)O1` (configuration not stated), the logP is reported as 3.05.
Work on `CCC(C)(C)c1ccc(OCC2CN=C(N)O2)cc1` (configuration not stated) yielded a logP of 3.69.

Test: method code SF-HPLC, from DOI: 10.1080/10826079708014133
Settings: pH 11.0
Work on `NC1=NCC(COc2cccc(Cl)c2)O1` (configuration not stated) yielded a logD of 2.09.
Work on `Cc1ccc(OCC2CN=C(N)O2)c(C)c1` (configuration not stated) yielded a logD of 2.23.
Molecule `Cc1ccc(OCC2CN=C(N)O2)cc1C` (configuration not stated) has a logD of 2.1.
With `Cc1cccc(C)c1OCC1CN=C(N)O1` (configuration not stated) the logD was 2.
`CCc1ccc(OCC2CN=C(N)O2)cc1` (configuration not stated) gave a logD of 2.27.
For `Cc1ccc(C)c(OCC2CN=C(N)O2)c1` (configuration not stated), the logD was 2.29.
In the case of `Cc1cccc(OCC2CN=C(N)O2)c1C` (configuration not stated), the logD is reported as 2.25.
Molecule `NC1=NCC(COc2ccc(-c3ccccc3)cc2)O1` (configuration not stated) has a logD of 2.8.
Work on `NC1=NCC(COc2cccc(C(F)(F)F)c2)O1` (configuration not stated) yielded a logD of 2.35.
In the case of `Cc1cccc(OCC2CN=C(N)O2)c1` (configuration not stated), the logD is reported as 1.75.
